Measured values from PMC8865417, “Receptor Interaction Profiles of 4-Alkoxy-3,5-Dimethoxy-Phenethylamines (Mescaline Derivatives) and Related Amphetamines” (Frontiers in Pharmacology, 2022).
Where two headings read alike, the source gives them in different places.

Experiments:
humans = details: cited from earlier work
hα1A adrenergic receptor = molecular target: T1, hα1A adrenergic receptor (Homo sapiens, UniProt P35348); experiment: Radioligand binding at hα1A adrenergic receptor ([3H]prazosin); details: mean ± SD
T1 construct: expressed in transfected cells; host or cells: Chinese hamster ovary cells (membrane preparations)
T1 sequence (P35348 1-466): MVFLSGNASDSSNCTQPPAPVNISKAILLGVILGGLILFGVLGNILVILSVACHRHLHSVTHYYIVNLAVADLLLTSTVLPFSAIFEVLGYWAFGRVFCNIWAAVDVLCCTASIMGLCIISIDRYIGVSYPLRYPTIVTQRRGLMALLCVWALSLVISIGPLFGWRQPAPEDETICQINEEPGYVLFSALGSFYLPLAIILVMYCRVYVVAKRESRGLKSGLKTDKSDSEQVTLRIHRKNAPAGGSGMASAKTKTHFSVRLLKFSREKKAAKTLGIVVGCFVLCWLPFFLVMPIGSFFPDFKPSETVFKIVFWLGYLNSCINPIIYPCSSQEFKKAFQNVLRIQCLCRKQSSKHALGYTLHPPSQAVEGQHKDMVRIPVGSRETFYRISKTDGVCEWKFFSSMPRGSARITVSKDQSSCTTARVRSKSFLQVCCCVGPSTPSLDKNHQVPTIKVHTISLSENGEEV

h5-HT2C receptor = molecular target: T2, h5-HT2C receptor (Homo sapiens, UniProt P28335); experiment: biochemical; type: binding; details: [3H]mesulergine; mean ± SD; read-out: h5-HT2C Receptor binding Ki ± SD
T2 construct: expressed in transfected cells; host or cells: HEK 293 cells (membrane preparations)
T2 sequence (P28335 33-458): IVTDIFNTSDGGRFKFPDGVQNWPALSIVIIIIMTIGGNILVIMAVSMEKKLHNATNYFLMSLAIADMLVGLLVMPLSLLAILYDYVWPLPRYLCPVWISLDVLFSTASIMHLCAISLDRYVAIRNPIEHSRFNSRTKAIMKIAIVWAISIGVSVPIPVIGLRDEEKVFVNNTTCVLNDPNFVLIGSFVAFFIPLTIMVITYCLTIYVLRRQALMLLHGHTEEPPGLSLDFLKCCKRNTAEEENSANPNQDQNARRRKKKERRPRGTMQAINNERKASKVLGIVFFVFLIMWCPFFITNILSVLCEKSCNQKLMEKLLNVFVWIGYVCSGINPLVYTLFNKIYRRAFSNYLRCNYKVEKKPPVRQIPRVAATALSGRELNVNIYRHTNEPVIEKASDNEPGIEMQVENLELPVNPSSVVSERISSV

hDAT = molecular target: T3, hDAT (Homo sapiens, UniProt Q01959); experiment: Radioligand binding at hDAT ([3H]WIN35,428)
T3 construct: expressed in transfected cells; host or cells: HEK 293 cells (membrane preparations)
T3 sequence (Q01959 whole entry): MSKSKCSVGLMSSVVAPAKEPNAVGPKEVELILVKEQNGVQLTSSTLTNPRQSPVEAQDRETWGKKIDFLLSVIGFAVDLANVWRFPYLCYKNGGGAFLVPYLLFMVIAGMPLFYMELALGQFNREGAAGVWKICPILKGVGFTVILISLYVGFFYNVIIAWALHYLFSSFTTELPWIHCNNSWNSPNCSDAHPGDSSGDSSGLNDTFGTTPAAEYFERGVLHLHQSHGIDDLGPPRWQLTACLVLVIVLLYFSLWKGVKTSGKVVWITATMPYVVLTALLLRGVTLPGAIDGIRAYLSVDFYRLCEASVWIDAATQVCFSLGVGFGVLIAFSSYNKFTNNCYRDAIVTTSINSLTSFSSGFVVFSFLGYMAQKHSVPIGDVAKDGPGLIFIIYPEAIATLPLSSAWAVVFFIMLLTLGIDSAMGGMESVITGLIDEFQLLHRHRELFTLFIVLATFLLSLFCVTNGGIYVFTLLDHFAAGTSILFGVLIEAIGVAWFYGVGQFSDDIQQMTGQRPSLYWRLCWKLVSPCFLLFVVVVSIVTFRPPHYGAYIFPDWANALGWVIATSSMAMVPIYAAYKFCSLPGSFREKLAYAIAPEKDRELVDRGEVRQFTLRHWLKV

[1] = molecular target: T4, dopaminergic hD2 receptor (Homo sapiens, UniProt P14416); experiment: Radioligand binding at dopaminergic hD2 receptor ([3H]spiperone)
T4 construct: expressed in transfected cells; host or cells: HEK 293 cells (membrane preparations)
T4 sequence (P14416 whole entry): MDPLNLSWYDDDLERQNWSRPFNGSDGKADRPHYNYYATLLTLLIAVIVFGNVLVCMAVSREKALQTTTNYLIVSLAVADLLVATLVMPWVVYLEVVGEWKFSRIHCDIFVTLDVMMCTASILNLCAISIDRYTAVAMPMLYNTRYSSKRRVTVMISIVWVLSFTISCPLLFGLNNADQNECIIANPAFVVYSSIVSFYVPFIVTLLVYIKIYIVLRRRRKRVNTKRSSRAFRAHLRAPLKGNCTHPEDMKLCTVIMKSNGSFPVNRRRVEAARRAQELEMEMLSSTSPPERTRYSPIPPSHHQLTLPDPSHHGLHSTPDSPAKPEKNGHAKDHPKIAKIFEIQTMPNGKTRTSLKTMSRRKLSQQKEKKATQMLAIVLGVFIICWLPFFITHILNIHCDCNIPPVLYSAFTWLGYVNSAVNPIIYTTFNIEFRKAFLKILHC

rat TAAR1 = molecular target: T5, rat TAAR1 (Rattus norvegicus, UniProt Q923Y9); experiment: Radioligand binding at rat TAAR1 ([3H]RO5166017)
T5 construct: expressed in transfected cells; host or cells: HEK 293 cells (membrane preparations)
T5 sequence (Q923Y9 whole entry): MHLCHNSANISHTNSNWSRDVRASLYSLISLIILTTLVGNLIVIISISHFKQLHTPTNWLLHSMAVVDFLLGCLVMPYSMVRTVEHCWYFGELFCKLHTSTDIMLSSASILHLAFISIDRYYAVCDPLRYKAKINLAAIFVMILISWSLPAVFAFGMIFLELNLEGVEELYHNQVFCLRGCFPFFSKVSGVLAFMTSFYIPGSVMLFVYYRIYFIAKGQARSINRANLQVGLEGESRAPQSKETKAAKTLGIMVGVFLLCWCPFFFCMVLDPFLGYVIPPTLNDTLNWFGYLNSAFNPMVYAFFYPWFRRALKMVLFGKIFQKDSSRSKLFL

mouse TAAR1 = molecular target: T6, mouse TAAR1 (Mus musculus, UniProt Q923Y8); experiment: Radioligand binding at mouse TAAR1 ([3H]RO5166017)
T6 construct: expressed in transfected cells; host or cells: HEK 293 cells (membrane preparations)
T6 sequence (Q923Y8 whole entry): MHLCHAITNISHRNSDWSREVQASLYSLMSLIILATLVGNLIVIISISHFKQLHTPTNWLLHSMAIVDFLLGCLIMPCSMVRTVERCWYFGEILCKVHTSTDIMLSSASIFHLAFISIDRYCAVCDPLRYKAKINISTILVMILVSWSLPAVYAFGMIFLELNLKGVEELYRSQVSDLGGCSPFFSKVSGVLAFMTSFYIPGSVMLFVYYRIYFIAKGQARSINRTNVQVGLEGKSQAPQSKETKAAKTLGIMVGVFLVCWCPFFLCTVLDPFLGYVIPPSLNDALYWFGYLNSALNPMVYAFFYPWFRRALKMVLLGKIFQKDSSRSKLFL

human 5-HT2B receptor = human 5-HT2B receptor (Homo sapiens, UniProt P41595); details: for EC50: h5-HT2B Activation potency EC50 ± SD, HEK 293 cells, calcium FLIPR, mean ± SD; for Emax: HEK293, read-out: h5-HT2B Activation efficacy max ± SD, relative to 5-HT = 100%
human 5-HT2B receptor, sequence (P41595 whole entry): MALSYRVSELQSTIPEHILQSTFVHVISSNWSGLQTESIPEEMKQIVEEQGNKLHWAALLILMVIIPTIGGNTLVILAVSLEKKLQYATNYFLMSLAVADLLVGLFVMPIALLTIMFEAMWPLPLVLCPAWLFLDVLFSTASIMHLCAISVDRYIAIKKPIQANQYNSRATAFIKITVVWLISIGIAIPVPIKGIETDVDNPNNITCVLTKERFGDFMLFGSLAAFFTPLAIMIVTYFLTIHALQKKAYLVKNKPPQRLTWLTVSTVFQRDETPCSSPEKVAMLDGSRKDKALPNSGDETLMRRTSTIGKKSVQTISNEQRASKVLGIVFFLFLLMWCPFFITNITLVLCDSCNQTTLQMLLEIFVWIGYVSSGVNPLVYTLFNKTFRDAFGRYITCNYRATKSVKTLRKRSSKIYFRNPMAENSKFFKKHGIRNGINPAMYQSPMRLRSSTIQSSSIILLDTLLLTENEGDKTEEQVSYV

hSERT = molecular target: T7, hSERT (Homo sapiens, UniProt P31645); experiment: Radioligand binding at hSERT ([3H]citalopram)
T7 construct: expressed in transfected cells; host or cells: HEK 293 cells (membrane preparations)
T7 sequence (P31645 whole entry): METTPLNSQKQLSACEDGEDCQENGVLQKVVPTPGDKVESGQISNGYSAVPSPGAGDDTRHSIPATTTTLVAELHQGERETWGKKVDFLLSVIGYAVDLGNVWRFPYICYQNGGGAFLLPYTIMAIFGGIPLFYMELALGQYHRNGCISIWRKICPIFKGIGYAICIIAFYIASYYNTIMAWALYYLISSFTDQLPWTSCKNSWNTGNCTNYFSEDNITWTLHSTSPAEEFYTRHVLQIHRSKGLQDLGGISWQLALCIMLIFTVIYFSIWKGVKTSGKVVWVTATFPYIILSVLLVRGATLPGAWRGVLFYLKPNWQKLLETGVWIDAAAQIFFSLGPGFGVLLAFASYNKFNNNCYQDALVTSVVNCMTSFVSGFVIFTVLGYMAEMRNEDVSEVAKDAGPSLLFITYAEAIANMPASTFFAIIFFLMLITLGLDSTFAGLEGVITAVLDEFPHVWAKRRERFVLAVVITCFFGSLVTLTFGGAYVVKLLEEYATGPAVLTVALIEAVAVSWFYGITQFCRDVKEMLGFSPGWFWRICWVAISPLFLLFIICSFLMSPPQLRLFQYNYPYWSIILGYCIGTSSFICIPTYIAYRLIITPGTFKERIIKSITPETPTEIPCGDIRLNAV

h5-HT1A receptor = molecular target: T8, h5-HT1A receptor (Homo sapiens, UniProt P08908); experiment: Radioligand binding at h5-HT1A receptor ([3H]8-OH-DPAT)
T8 construct: expressed in transfected cells; host or cells: HEK 293 cells (membrane preparations)
T8 sequence (P08908 1-422): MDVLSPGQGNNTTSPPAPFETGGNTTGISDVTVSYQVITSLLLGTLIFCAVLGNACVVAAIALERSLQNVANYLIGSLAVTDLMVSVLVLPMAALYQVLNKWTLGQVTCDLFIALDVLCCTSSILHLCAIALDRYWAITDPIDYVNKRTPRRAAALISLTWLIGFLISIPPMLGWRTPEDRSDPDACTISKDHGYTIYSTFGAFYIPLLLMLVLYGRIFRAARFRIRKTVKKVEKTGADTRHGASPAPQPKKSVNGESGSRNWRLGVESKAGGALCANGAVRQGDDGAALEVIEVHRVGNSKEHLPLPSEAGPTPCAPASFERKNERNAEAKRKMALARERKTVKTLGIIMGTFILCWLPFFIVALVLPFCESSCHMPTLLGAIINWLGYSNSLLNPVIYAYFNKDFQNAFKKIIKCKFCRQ

hNET = molecular target: T9, hNET (Homo sapiens, UniProt P23975); experiment: Radioligand binding at hNET (N-methyl-[3H]nisoxetine)
T9 construct: expressed in transfected cells; host or cells: HEK 293 cells (membrane preparations)
T9 sequence (P23975 whole entry): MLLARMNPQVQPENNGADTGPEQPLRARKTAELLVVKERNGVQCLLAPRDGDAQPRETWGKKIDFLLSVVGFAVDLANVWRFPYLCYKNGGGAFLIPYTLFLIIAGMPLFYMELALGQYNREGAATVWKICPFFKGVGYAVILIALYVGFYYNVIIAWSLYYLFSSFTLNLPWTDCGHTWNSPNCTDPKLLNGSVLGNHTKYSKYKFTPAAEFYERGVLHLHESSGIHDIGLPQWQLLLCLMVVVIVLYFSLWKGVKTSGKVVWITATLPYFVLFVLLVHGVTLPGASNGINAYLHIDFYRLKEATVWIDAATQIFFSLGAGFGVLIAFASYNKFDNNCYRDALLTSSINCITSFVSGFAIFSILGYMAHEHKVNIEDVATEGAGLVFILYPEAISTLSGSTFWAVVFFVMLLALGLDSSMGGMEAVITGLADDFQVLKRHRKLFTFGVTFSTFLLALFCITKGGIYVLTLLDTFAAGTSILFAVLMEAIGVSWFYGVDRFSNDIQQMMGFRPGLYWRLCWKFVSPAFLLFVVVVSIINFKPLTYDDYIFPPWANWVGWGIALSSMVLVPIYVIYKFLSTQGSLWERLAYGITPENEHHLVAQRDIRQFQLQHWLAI

human 5-HT2A receptor = human 5-HT2A receptor (Homo sapiens, UniProt P28223); details: for Emax: NIH3T3, read-out: h5-HT2A Activation efficacy max ± SD, relative to 5-HT = 100%
human 5-HT2A receptor, sequence (P28223 whole entry): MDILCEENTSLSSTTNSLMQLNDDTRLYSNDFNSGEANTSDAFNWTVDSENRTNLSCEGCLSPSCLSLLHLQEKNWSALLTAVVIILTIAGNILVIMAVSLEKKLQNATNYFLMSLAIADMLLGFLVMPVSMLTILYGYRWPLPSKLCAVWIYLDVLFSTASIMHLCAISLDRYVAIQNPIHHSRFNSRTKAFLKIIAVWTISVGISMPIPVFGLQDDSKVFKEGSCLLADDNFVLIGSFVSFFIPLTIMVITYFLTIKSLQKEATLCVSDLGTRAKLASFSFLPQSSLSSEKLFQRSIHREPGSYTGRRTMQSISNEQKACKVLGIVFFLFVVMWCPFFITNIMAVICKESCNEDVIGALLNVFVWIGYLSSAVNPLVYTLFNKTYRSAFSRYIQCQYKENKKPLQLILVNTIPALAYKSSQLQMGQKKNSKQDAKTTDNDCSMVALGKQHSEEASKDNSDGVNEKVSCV

hα2A adrenergic receptor = molecular target: T10, hα2A adrenergic receptor (Homo sapiens, UniProt P08913); experiment: Radioligand binding at hα2A adrenergic receptor ([3H]rauwolscine)
T10 construct: expressed in transfected cells; host or cells: Chinese hamster lung cells (membrane preparations)
T10 sequence (P08913 1-465): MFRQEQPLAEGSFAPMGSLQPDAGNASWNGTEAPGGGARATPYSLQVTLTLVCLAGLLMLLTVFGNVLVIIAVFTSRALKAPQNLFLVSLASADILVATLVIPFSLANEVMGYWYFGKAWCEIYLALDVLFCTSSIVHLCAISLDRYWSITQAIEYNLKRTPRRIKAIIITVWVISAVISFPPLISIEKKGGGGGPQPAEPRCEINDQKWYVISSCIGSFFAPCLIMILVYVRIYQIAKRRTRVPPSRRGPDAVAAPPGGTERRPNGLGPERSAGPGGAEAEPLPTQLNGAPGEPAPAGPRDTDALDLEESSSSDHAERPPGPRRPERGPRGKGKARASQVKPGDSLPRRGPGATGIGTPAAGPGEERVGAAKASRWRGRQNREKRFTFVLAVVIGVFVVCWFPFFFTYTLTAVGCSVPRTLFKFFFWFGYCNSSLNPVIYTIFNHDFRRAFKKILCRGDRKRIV

h5-HT2A receptor = molecular target: T11, h5-HT2A receptor (Homo sapiens, UniProt P28223); experiment: Radioligand binding at h5-HT2A receptor ([3H]ketanserin); details: for Selectivity 5-HT2A vs. 5-HT1A / Selectivity 5-HT2A vs. 5-HT2C: binding ratio; for Ki: h5-HT2A Receptor binding Ki ± SD, [3H]ketanserin, mean ± SD
T11 construct: expressed in transfected cells; host or cells: HEK 293 cells (membrane preparations)
T11 sequence (P28223 whole entry): as the sequence (P28223 whole entry) above

SMILES	Ki (hα1A adrenergic receptor) [µM]	Ki (h5-HT2C receptor) [µM]	Ki (hDAT) [µM]	Ki [1] [µM]	Ki (rat TAAR1) [µM]	Ki (mouse TAAR1) [µM]	EC50 (human 5-HT2B receptor) [µM]	Ki (hSERT) [µM]	Ki (h5-HT1A receptor) [µM]	Ki (hNET) [µM]	EC50 (human 5-HT2A receptor) [µM]	Emax (human 5-HT2A receptor) [%]	Ki (hα2A adrenergic receptor) [µM]	Selectivity 5-HT2A vs. 5-HT2C (h5-HT2A receptor)	Ki (h5-HT2A receptor) [µM]	Emax (human 5-HT2B receptor) [%]	other results
COc1cc(CC(C)N)c(OC)cc1Br (stereo not drawn) [compound 2, 4-bromo-2,5-dimethoxyamphetamine, reference compound]	–	–	–	–	–	–	–	–	–	–	–	–	–	–	–	–	Psychedelic / active dose in humans (humans; ref Shulgin and Shulgin 1991): 1 to 3 mg
COc1cc(CC(C)N)c(OC)cc1C (stereo not drawn) [compound 7, 2,5-dimethoxy-4-methylamphetamine, reference compound]	–	–	–	–	–	–	–	–	–	–	–	–	–	–	–	–	Psychedelic / active dose in humans (humans; ref Shulgin and Shulgin 1991): 3 to 10 mg
COc1cc(CCN)cc(OC)c1SC [compound 10, 4-thiomescaline, reference compound]	–	–	–	–	–	–	–	–	–	–	–	–	–	–	–	–	Increase in human potency compared to mescaline (5) (humans; ref Shulgin and Shulgin 1991): 10 fold; Psychedelic / active dose in humans (humans; ref Shulgin and Shulgin 1991): 20 to 40 mg
COc1cc(CCN)cc(OC)c1OC(F)F [compound 12, 4-difluoromethoxy-3,5-dimethoxyphenethylamine]	8	2.8	> 8.5	> 6.3	0.88 ± 0.18	> 4.2	> 10	> 7.5	2.5	> 9.7	1.5	85 to 94	1.7	0.8	3.5	–	Increase in human potency compared to mescaline (5) (humans; ref Trachsel 2012): 4 fold; Selectivity 5-HT2A vs. 5-HT1A (h5-HT2A receptor): 0.7
COc1cc(CCN)cc(OC)c1OCCF [compound 16, 3,5-dimethoxy-4-(2-fluoroethoxy)phenethylamine]	> 8.7	5.7	> 8.5	> 6.3	> 4	> 4.2	2.3	> 7.5	> 5.6	> 9.7	5.7	85 to 94	3.7	–	> 12	29 ± 7	–
COc1cc(CCN)cc(OC)c1OCC(F)F [compound 17, 4-(2,2-difluoroethoxy)-3,5-dimethoxyphenethylamine]	> 8.7	2.7	> 8.5	> 6.3	2.1	> 4.2	1.7	> 7.5	> 5.6	> 9.7	1.3	44 to 78	2.7	0.9	2.9	25 ± 7	–
COc1cc(CC(C)N)cc(OC)c1OCC(F)F (stereo not drawn) [compound 19, 4-(2,2-difluoroethoxy)-3,5-dimethoxyamphetamine]	> 8.7	2.6	> 8.5	> 6.3	3.9	> 4.2	0.26 ± 0.03	> 7.5	> 5.6	> 9.7	0.12 ± 0.02	86 to 102	> 5.1	1.7	1.5	18 to 29	–
COc1cc(CC(C)N)cc(OC)c1OCCF (stereo not drawn) [compound 20, 3,5-dimethoxy-4-(2-fluoroethoxy)amphetamine]	> 8.7	8.4	> 8.5	> 6.3	> 4.7	> 4.2	0.8 ± 0.24	> 7.5	> 5.6	> 9.7	0.12 ± 0.04	86 to 102	> 5.1	–	12	18 to 29	Selectivity 5-HT2A vs. 5-HT1A (h5-HT2A receptor): >1
COc1cc(CCN)cc(OC)c1OC(C)C [compound 22, 3,5-dimethoxy-4-isopropoxyphenethylamine]	> 8.7	5.4	> 8.5	> 6.3	> 4.7	> 4.2	> 10	> 7.5	> 5.6	> 9.7	1.9	–	1.2	0.9	6.2	–	Selectivity 5-HT2A vs. 5-HT1A (h5-HT2A receptor): >1
COc1cc(CC(C)N)cc(OC)c1OCCCF (stereo not drawn) [compound 27, 3,5-dimethoxy-4-(3-fluoropropoxy)-amphetamine]	> 8.7	4.4	> 8.5	> 6.3	> 4.7	2.8	> 10	> 7.5	> 5.6	> 9.7	0.057 ± 0.002	–	> 5.1	1.7	2.6	–	–
C=CCOc1c(OC)cc(CC(C)N)cc1OC (stereo not drawn) [compound 31, 4-allyloxy-3,5-dimethoxyamphetamine]	> 8.7	1.7	> 8.5	> 6.3	3.6	3.3	> 10	> 7.5	> 5.6	> 9.7	0.19 ± 0.03	–	> 5.1	1.7	1.1	–	Active dose in humans (humans; ref Trachsel et al., 2013): 15 to 30 mg; Increase in 5-HT2A receptor affinity compared with TMA (6) (h5-HT2A receptor; ratio of Ki values): ≥ 10 fold
